{"source": "patent US20040242568A1", "about": "“Dipeptidyl peptidase inhibitors” (Syrrx, Inc., priority 2003, published 2004)", "data": [{"experiment": "Microsomal stability in rat liver microsomes", "conditions": "Rat liver microsomes 1 mg/mL protein, 1 μM compound, 37° C., NADPH 4 mM", "units": {"T1/2": "min"}, "description": "Several compounds were evaluated for stability in rat liver microsomes.\nThe test compounds (1 μM) were incubated at 37° C. in phosphate buffer (50 mM, pH 7.4) containing rat liver microsomes (1 mg/mL protein) and NADPH (Nicotinamide Adenine Dinucleotide Phosphate, reduced form) (4 mM). The incubation mixtures were quenched with trichloroacetic acid (0.3 M) over 0, 5, 15, 30 min time-course. Quenched solutions were centrifuged and supernatants were transferred for LC/MS quantitation. The half life of a test compounds was derived from the compound stability curve over the time course.", "values": [{"smiles": "N#Cc1ccccc1Cn1c(N2CCCC(N)C2)nc2ccccc2c1=O", "note": "(stereo not drawn) [Example 1, 2-[2-(3-Amino-piperidin-1-yl)-4-oxo-4H-quinazolin-3-ylmethyl]-benzonitrile]", "T1/2": 2.5}, {"smiles": "COc1cc2nc(N3CCCC(N)C3)n(Cc3ccccc3C#N)c(=O)c2cc1OC", "note": "(stereo not drawn) [Example 2, 2-[2-(3-Amino-piperidin-1-yl)-6,7-dimethoxy-4-oxo-4H-quinazolin-3-ylmethyl]-benzonitrile]", "T1/2": 106.6}, {"smiles": "N#Cc1ccccc1Cn1c(N2CCCC(N)C2)nc2ccc(F)cc2c1=O", "note": "(stereo not drawn) [Example 6, 2-[2-(3-Amino-piperidin-1-yl)-6-fluoro-4-oxo-4H-quinazolin-3-ylmethyl]-benzonitrile]", "T1/2": 31}]}]}
